Where two headings read alike, the source gives them in different places.
Legend:
[1] = molecular target: T1, F508delCFTR (Homo sapiens, UniProt P13569, DEL508-508); assay: Cell Surface Expression-Horse Radish Peroxidase (CSE-HRP) assay in CFBE41o-F508delCFTR-HRP cells; format: cell-based; settings: for EC50: CFBE41o-F508delCFTR-HRP cells, 18-24 hours at 33° C., luminescence; for Maximum % activity (without co-corrector): normalized to on-plate positive control corrector (2 μM)
T1 construct: expressed in transfected cells; host or cells: CFBE41o- human lung-derived epithelial cell line, doxycycline-inducible expression
How it was run: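 Test compounds were tested alone or alongside a co-corrector (2 μM), 8-point 3-fold series from 20 or 30 μM, for 18–24 h at 33 °C on doxycycline-induced CFBE41o-F508delCFTR-HRP cells. After washing, luminol luminescence reported cell-surface HRP-tagged CFTR, normalized to the positive control (% activity). EC50 was fitted with a variable Hill slope sigmoid from triplicate plates; Z′ >0.5 required.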

[2] = molecular target: T2, F508del/F508del CFTR (Homo sapiens, UniProt P13569, DEL508-508); assay: Trans-Epithelial Current Clamp (TECC) assay using primary human bronchial epithelial cells; format: cell-based; settings: for Emax (% Dual): maximum percent activity relative to positive control (co-corrector 0.15 μM + potentiator 0.45 μM = 100%), primary hBE cells F508del/F508del; for EC50: primary hBE cells homozygous F508del/F508del, test C2 corrector with co-corrector and potentiator, 18-24 hours at 37° C., equivalent CFTR current (IEQ)/AUC
T2 construct: cells isolated from CF patients with the homozygous mutation; endogenous in cells; host or cells: primary human bronchial epithelial (hBE) cells from CF patients homozygous for F508del
How it was run: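 Readout is the equivalent CFTR current (IEQ, from offset-corrected VT and RT) plus AUC from forskolin peak to bumetanide addition, recorded on TECC-24 at 36.5° C. Beforehand, homozygous F508del hBE cultures received correctors with co-corrector and potentiator basolaterally for 18-24 h at 37° C.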

[3] = with co-corrector (2 μM), read-out: EC50 (with co-corrector)
[4] = without co-corrector, read-out: EC50 (without co-corrector)

T2 sequence (P13569 with tags, fused parts or gaps DEL508-508): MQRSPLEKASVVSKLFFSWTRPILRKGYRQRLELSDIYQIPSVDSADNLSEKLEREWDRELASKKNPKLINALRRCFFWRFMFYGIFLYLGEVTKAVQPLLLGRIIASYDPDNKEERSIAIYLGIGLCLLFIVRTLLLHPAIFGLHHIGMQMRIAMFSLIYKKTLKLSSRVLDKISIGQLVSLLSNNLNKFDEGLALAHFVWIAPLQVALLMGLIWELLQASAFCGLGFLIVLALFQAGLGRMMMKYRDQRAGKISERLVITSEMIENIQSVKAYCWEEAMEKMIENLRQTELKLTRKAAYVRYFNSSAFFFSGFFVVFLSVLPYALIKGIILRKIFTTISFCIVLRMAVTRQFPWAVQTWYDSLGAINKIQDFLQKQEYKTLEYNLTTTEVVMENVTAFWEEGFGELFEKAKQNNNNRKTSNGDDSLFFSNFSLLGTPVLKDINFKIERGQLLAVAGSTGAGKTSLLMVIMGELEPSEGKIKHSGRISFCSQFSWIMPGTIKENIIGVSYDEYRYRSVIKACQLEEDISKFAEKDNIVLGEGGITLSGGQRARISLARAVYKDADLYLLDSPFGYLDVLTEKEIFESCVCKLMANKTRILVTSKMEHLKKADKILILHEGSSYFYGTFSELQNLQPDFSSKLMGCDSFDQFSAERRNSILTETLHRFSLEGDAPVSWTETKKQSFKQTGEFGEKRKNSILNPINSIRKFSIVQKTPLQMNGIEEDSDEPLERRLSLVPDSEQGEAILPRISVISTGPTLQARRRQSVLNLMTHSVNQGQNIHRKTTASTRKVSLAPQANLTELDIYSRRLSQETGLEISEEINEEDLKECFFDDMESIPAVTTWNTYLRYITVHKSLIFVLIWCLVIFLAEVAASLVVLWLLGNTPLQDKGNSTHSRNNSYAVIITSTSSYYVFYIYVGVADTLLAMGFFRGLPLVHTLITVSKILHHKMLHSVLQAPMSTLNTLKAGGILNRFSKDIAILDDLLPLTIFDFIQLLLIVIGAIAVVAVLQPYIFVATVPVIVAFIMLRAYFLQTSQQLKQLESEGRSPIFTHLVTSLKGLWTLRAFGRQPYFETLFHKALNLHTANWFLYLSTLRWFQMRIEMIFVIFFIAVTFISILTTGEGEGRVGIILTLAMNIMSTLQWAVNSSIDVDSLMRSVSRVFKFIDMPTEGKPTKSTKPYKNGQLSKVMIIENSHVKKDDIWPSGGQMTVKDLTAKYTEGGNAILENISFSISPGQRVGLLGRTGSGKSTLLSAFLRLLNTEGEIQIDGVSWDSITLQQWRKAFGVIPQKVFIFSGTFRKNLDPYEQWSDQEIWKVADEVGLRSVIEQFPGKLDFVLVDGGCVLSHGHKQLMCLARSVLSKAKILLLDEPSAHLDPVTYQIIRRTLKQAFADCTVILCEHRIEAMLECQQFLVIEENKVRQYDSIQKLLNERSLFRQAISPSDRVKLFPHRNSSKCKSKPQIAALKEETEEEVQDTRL
T1 sequence (P13569 with tags, fused parts or gaps DEL508-508): as above

| Structure (SMILES) | EC50 [1, 3] | EC50 [1, 4] | Emax (% Dual) [2] | EC50 [2] | Maximum % activity (without co-corrector) ([1]; without co-corrector) |
| --- | --- | --- | --- | --- | --- |
| COc1ccc(C)cc1[C@]1(C(=O)NS(=O)(=O)c2cccc3nc(C)ccc23)C[C@@H]1c1cc(F)cnc1OC [Example 84, (1S,2R)-2-(5-fluoro-2-methoxypyridin-3-yl)-1-(2-methoxy-5-methylphenyl)-N-(2-methylquinoline-5-sulfonyl)cyclopropane-1-carboxamide] | 945 nM | 1360 nM | 215 % Dual | 17.5 nM | – |
| COCc1cccc([C@H]2C[C@@]2(C(=O)NS(=O)(=O)c2cccc3nc(C)ccc23)c2cc(C)ccc2OC)n1 [Example 90, (1S,2S)-1-(2-methoxy-5-methylphenyl)-2-[6-(methoxymethyl)pyridin-2-yl]-N-(2-methylquinoline-5-sulfonyl)cyclopropane-1-carboxamide] | 900 nM | 1720 nM | 348 % Dual | 40.4 nM | 812% |
| COc1ccc(C)cc1[C@]1(C(=O)NS(=O)(=O)c2cccc3nc(C)ccc23)C[C@@H]1c1cccc(C)n1 [Example 96, (1S,2S)-1-(2-methoxy-5-methylphenyl)-2-(6-methylpyridin-2-yl)-N-(2-methylquinoline-5-sulfonyl)cyclopropane-1-carboxamide] | 990 nM | 1980 nM | 256 % Dual | 7.8 nM | – |

Compounds with a lower EC50 [1, 3], results first:

| EC50 [1, 3] | EC50 [1, 4] | Emax (% Dual) [2] | EC50 [2] | Maximum % activity (without co-corrector) ([1]; without co-corrector) | Structure (SMILES) |
| --- | --- | --- | --- | --- | --- |
| 359 nM | 988 nM | 198 % Dual | 0.9 nM | – | COc1ccc(C)cc1[C@]1(C(=O)NS(=O)(=O)c2cccc3nc(C)ccc23)C[C@@H]1c1cccc(OC(C)C)n1 [Example 97, (1S,2S)-1-(2-methoxy-5-methylphenyl)-N-(2-methylquinoline-5-sulfonyl)-2-{6-[(propan-2-yl)oxy]pyridin-2-yl}cyclopropane-1-carboxamide] |
| 825 nM | 2300 nM | 397 % Dual | 32.7 nM | – | COc1ccc(C)cc1[C@]1(C(=O)NS(=O)(=O)c2cccc3nc(C)ccc23)C[C@@H]1c1cnc(OC)c(Cl)c1 [Example 102, (1S,2R)-2-(5-chloro-6-methoxypyridin-3-yl)-1-(2-methoxy-5-methylphenyl)-N-(2-methylquinoline-5-sulfonyl)cyclopropane-1-carboxamide] |
| 587 nM | 714 nM | 266 % Dual | 1.8 nM | 800% | COc1ccc(C)cc1[C@]1(C(=O)NS(=O)(=O)c2cccc3nc(C)ccc23)C[C@@H]1c1cnc(OC)c(C)c1 [Example 103, (1S,2R)-1-(2-methoxy-5-methylphenyl)-2-(6-methoxy-5-methylpyridin-3-yl)-N-(2-methylquinoline-5-sulfonyl)cyclopropane-1-carboxamide] |

From patent US20240043386A1, “Modulators of the Cystic Fibrosis Transmembrane Conductance Regulator Protein and Methods of Use” (AbbVie Global Enterprises Ltd., priority 2021, published 2024)
